Experimental data reported in patent US20060089371A1, “Phenyl or heteroaryl amino alkane derivatives as ip receptor antagonist” (Bayer HealthCare AG, priority 2002, published 2006).
pIC50: −log10 of the molar value. Counter-ions that a name gives are not always drawn.

Key:
IP receptor = molecular target: T1, IP receptor (Homo sapiens, UniProt P43119); experiment: IP receptor binding/cAMP in HEL cells ([3H]-iloprost binding, Assay 1; iloprost-induced cAMP production, Assay 2); conditions: compounds of about 40 to 90% purity, read-out: In vitro activity grade (IC50 class)
T1 construct: one million cells in 160 μl aliquot of cell suspension were put in a well of 96 well plate; host or cells: HEL 92.1.7 human erythroleukemia cells (whole cells)
Experimental: [Measurement of the [^3H]-iloprost Binding to HEL Cells] (Assay 1)
A human erythloleukemia cell line, HEL 92.1.7, was purchased from American Type Culture Correction and maintained in RPMI-1640 medium (Gibco BRL) supplemented with 10% fetal calf serum (FCS), 2 mM glutamine, 4.5 g/L glucose, 10 mM Hepes, 1 mM sodium pyruvate, 100 U/ml penicillin, and 100 μg/ml streptomycin in a humidified 5% CO2 atmosphere at 37° C. Cells were collected with centrifugation and washed with binding assay buffer (BAB: 50 mM Tris-HCl, 5 mM MgCl2 (pH 7.5)). Cells were suspended at the density of 6.25×10^6 cells/ml in BAB, and one million cells in 160 μl aliquot of cell suspension were put in a well of 96 well plate (Falcon). Then, 20 μl of compound solution, 100 μM of iloprost (for non-specific binding), or buffer alone (total binding), diluted with 1% DMSO in BAB was added. Finally, another 20 μl containing [^3H]-iloprost (0.02 μCi, 0.5-1 pmol) in BAB was added and incubated at room temperature for 30 min with a gentle shaking. Cell suspension was then transferred to a well of MultiScreen plate with GF/C glass filters (Millipore) to harvest cells. Cells were washed twice with 200 μl of ice-cold BAB and the plate was kept at 55° C. for 30 min to dry filters. The filter in the well was punched out to a counting tube and 2 ml of Ultima Gold XR (Packard) was added. [^3H]-radio activity in the filter was measured by a liquid scintillation counter (Beckman, USA).
[Iloprost-Induced cAMP Production Assay in HEL Cells] (Assay 2)
HEL cells were collected with centrifugation and washed with cAMP assay buffer (CAB: Hank's balanced salt solution, 17 mM Hepes, 0.1% bovine serum albumin, 1 mM IBMX, 0.4% DMSO, and 1 mM L-ascorbic acid sodium salt (pH 7.4)). Cells were suspended at the density of 2.5×10^5 cells/ml in CAB, and twenty thousand cells in 80 μl aliquot of cell suspension were put in a well of 96 well plate (Falcon). Then, 10 μl of compound solution diluted with 1% DMSO in CAB or buffer alone was added. The plate was incubated at 37° C. for 30 min. Then, another 10 μl containing 100 nM iloprost in CAB or buffer alone was added and further incubated at 37° C. for 30 min. cAMP content in the well was measured by a cAMP ELISA kit (Applied Biosystems, USA).
The data corresponds to the compounds as yielded by solid phase synthesis and thus to levels of purity of about 40 to 90%. For practical reasons, the compounds are grouped in three classes of activity as follows: IC50=A<0.1 μM≦B<1 μM≦C

T1 sequence (P43119 whole entry): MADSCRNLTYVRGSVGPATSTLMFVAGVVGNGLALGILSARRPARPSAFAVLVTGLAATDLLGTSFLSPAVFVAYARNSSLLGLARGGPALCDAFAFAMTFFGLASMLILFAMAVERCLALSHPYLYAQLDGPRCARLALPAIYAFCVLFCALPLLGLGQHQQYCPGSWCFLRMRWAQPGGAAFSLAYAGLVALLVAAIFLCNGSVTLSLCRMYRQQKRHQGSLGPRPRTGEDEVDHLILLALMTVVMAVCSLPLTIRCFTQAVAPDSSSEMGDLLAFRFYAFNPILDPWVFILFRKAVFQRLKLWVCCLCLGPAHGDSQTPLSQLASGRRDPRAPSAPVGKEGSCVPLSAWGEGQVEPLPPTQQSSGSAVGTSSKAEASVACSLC

Row | SMILES | pIC50 (IP receptor) | melting point
1 | O=C(O)C(Cc1ccccc1)Nc1cc(-c2ccc(OCc3ccccc3)cc2)nc(Cl)n1 (stereo not shown) [Example 1-21] | > 7.00 | –
2 | O=C(O)[C@H](Cc1ccccc1)Nc1cc(-c2ccc(NCC3CC3)cc2)ncn1 [Example 16-1, N-(6-{4-[(Cyclopropylmethyl)amino]phenyl}pyrimidin-4-yl)phenylalanine] | 6.00 to 7.00 | –
3 | O=C(O)C(Cc1ccccn1)Nc1cc(-c2ccc(COc3ccccc3)cc2)ncn1 (stereo not shown) [Example 20-2] | > 7.00 | 81 to 84 °C
4 | O=C(O)C(Cc1ccccc1)Nc1cc(-c2ccccc2)ncn1 (stereo not shown) [Example 1-51] | 6.00 to 7.00 | –
5 | COc1cc(COc2ccc(-c3cccc(NC(Cc4ccccc4)C(=O)O)c3)cc2)cc(OC)c1 (stereo not shown) [Example 24-3] | > 7.00 | 166 to 168 °C
6 | O=C(Nc1ccccc1)c1ccc(-c2cc(NC(Cc3ccccc3)C(=O)O)ncn2)cc1 (stereo not shown) [Example 1-5] | 6.00 to 7.00 | 228 to 231 °C (dec.)
7 | O=C(O)C(Cc1ccccn1)Nc1cc(-c2ccc(OCc3cccc(F)c3)cc2)ncn1 (stereo not shown) [Example 2-33] | > 7.00 | 92 to 95 °C
8 | COc1cccc(COc2ccc(-c3cc(NC(Cc4ccccn4)C(=O)O)ncn3)cc2)c1 (stereo not shown) [Example 2-36] | > 7.00 | –
9 | O=C(O)C(Cc1ccccc1)Nc1cc(-c2ccc(OCCc3ccccn3)cc2)ncn1 (stereo not shown) [Example 2-26] | > 7.00 | 120 to 122 °C (dec.)
10 | COc1cc(COc2ccc(-c3cc(NC(Cc4ccccn4)C(=O)O)ncn3)cc2)cc(OC)c1 (stereo not shown) [Example 2-37] | > 7.00 | –
11 | O=C(O)C(Cc1ccccc1)Nc1cc(-c2ccc(-c3ccccc3)cc2)ncn1 (stereo not shown) [Example 1-10] | > 7.00 | 146 to 148 °C (dec.)
12 | O=C(O)C(Cc1ccc(Cl)cc1)Nc1cc(-c2ccc(OCc3ccccc3)cc2)ncn1 (stereo not shown) [Example 1-22] | > 7.00 | 150 to 153 °C (dec.)
13 | O=C(O)C(Cc1ccccc1)Nc1cc(-c2ccc(OCc3ccccn3)cc2)ncn1 (stereo not shown) [Example 2-28] | > 7.00 | 120 to 123 °C
14 | O=C(O)C(Cc1ccccc1)Nc1cc(-c2ccc(Oc3ccccc3)cc2)ncn1 (stereo not shown) [Example 1-8] | > 7.00 | 214 to 217 °C (dec.)
15 | O=C(O)C(Cc1ccccn1)Nc1cc(-c2ccc(OCc3cc(F)cc(F)c3)cc2)ncn1 (stereo not shown) [Example 2-39] | > 7.00 | 90 to 92 °C
16 | O=C(O)C(Cc1ccccc1)Nc1cc(-c2ccc(-c3ccc(-c4ccccc4)cc3)cc2)ncn1 (stereo not shown) [Example 11-8] | < 6.00 | –
17 | O=C(O)C(Cc1ccccc1)Nc1cc(-c2ccc(CN3Cc4ccccc4C3)cc2)ncn1 (stereo not shown) [Example 19-3] | 6.00 to 7.00 | –
18 | O=C(O)C(Cc1ccccc1)Nc1cc(-c2ccc(Oc3ncc(C(F)(F)F)cc3Cl)cc2)ncn1 (stereo not shown) [Example 12-2] | < 6.00 | –
19 | O=C(O)[C@H](Cc1ccccc1)Nc1ccnc(-c2ccc(OCc3ccccc3)cc2)n1 [Example 3-1, N-{2-[4-(Benzyloxy)phenyl]-4-pyrimidinyl}phenylalanine] | 6.00 to 7.00 | –
20 | O=C(O)C(Cc1ccccc1)Nc1cc(-c2ccc(Oc3cc(C(F)(F)F)ncn3)cc2)ncn1 (stereo not shown) [Example 12-3] | 6.00 to 7.00 | –
21 | O=C(O)C(Cc1ccccc1)Nc1cc(-c2ccc(OCC3CC3)c(F)c2)ncn1 (stereo not shown) [Example 2-41] | > 7.00 | –
22 | O=C(O)C(Cc1ccccc1)Nc1cc(-c2ccc(Oc3ccc4ccccc4n3)cc2)ncn1 (stereo not shown) [Example 12-6] | 6.00 to 7.00 | –
23 | O=C(O)C(Cc1ccccc1)Nc1nc(-c2ccc(OCc3ccccc3)cc2)cs1 (stereo not shown) [Example 28-4] | < 6.00 | –
24 | O=C(O)C(Cc1ccccc1)Nc1cc(-c2ccc(OCc3ccccc3)cc2)on1 (stereo not shown) [Example 28-2] | > 7.00 | –
25 | N#Cc1ccnc(Oc2ccc(-c3cc(N[C@@H](Cc4ccccc4)C(=O)O)ncn3)cc2)c1 [Example 12-1, N-(6-{4-[(4-cyanopyridin-2-yl)oxy]phenyl}pyrimidin-4-yl)phenylalanine] | > 7.00 | –
26 | CCCCC(Nc1cc(-c2ccc(OCC3CC3)c(F)c2)ncn1)C(=O)O (stereo not shown) [Example 2-42] | 6.00 to 7.00 | –

Row | SMILES | pIC50 (IP receptor) | melting point
27 | O=C(O)[C@H](Cc1ccccc1)Nc1cc(-c2ccc(COc3ccccc3)cc2)ncn1 [Example 20-1, N-{6-[4-(Phenoxymethyl)phenyl]pyrimidin-4-yl}phenylalanine] | > 7.00 | –
28 | CCOc1ccc(-c2cc(NC(Cc3ccccc3)C(=O)O)ncn2)cc1 (stereo not shown) [Example 2-18] | > 7.00 | –
29 | CSc1nc(NC(Cc2ccccc2)C(=O)O)cc(-c2ccc(OCc3ccccc3)cc2)n1 (stereo not shown) [Example 1-54] | 6.00 to 7.00 | –
30 | O=C(O)[C@@H](Cc1ccccc1)Nc1cc(-c2ccc(OCc3ccccc3)cc2)ncn1 [Example 1-1, N-{6-[4-(Benzyloxy)phenyl]pyrimidin-4-yl}-D-phenylalanine] | > 7.00 | –
31 | CCCOc1ccc(-c2cc(NC(Cc3ccccc3)C(=O)O)ncn2)cc1 (stereo not shown) [Example 2-19] | > 7.00 | –
32 | COc1ccc(-c2ccc(-c3cc(N[C@@H](Cc4ccccc4)C(=O)O)ncn3)cc2)cc1 [Example 11-1, N-[6-(4′-Methoxybiphenyl-4-yl)pyrimidin-4-yl]phenylalanine] | > 7.00 | –
33 | O=C(O)C(Cc1c[nH]c2ccccc12)Nc1cc(-c2ccc(OCc3ccccc3)cc2)ncn1 (stereo not shown) [Example 1-37] | > 7.00 | –
34 | Cc1ccc(C#N)c(Oc2ccc(-c3cc(NC(Cc4ccccc4)C(=O)O)ncn3)cc2)n1 (stereo not shown) [Example 12-4] | < 6.00 | –
35 | O=C(O)[C@H](Cc1ccccc1)Nc1cc(-c2ccc(NS(=O)(=O)c3ccccc3)cc2)ncn1 [Example 15-1, N-(6-{4-[(Phenylsulfonyl)amino]phenyl}pyrimidin-4-yl)phenylalanine] | < 6.00 | –
36 | Nc1nc(NC(Cc2ccccc2)C(=O)O)cc(-c2ccc(OCc3ccccc3)cc2)n1 (stereo not shown) [Example 1-38] | > 7.00 | –
37 | O=C(O)C(Cc1ccccc1)Nc1cc(-c2ccc(NCc3ccccc3)cc2)ncn1 (stereo not shown) [Example 13-1, N-{6-[4-Benzylamino)phenyl]pyrimidin-4-yl}phenylalanine hydrochloride] | > 7.00 | –
38 | O=C(O)C(Cc1ccccn1)Nc1cc(-c2ccc(OCC3CC3)c(F)c2)ncn1 (stereo not shown) [Example 2-43] | 6.00 to 7.00 | –
39 | O=C(O)C(Cc1ccccc1)Nc1cc(-c2ccc(CCc3ccccc3)cc2)ncn1 (stereo not shown) [Example 8-1, N-{6-[4-(2-Phenylethyl)phenyl]pyrimidinyl}phenylalanine] | > 7.00 | –
40 | O=C(O)[C@H](Cc1ccccc1)Nc1nccc(-c2ccc(OCc3ccccc3)cc2)n1 [Example 29-1, N-{4-[4-(Benzyloxy)phenyl]pyrimidin-2-yl}phenylalanine] | > 7.00 | –
41 | O=C(O)C(Cc1ccccc1)Nc1cc(-c2ccc(F)cc2)ncn1 (stereo not shown) [Example 1-52] | 6.00 to 7.00 | –
42 | O=C(O)C(Cc1ccccc1)Nc1cc(-c2ccc(Cl)cc2)ncn1 (stereo not shown) [Example 1-55] | 6.00 to 7.00 | –
43 | O=C(O)[C@H](Cc1ccc(NC2=NCCN2)cc1)Nc1cc(-c2ccc(OCc3ccccc3)cc2)ncn1 [Example 6-1, N-{6-[4-(Benzyloxy)phenyl]pyrimidin-4-yl}-4-(4,5-dihydro-1H-imidazol-2-yl-amino)phenylalanine] | > 7.00 | –
44 | O=C(O)C(Cc1ccccc1)Nc1cc(-c2ccc(Oc3ccc(C(F)(F)F)cn3)cc2)ncn1 (stereo not shown) [Example 12-5] | 6.00 to 7.00 | –
45 | O=C(O)C(Cc1ccccc1)Nc1cc(-c2ccc(CNc3ccccc3)cc2)ncn1 (stereo not shown) [Example 19-1, N-{6-[4-(Anilinomethyl)phenyl]pyrimidinyl}phenylalanine] | > 7.00 | –
46 | c1ccc(COc2ccc(-c3cc(NC(Cc4ccccn4)c4nnn[nH]4)ncn3)cc2)cc1 (stereo not shown) [Example 27-2] | 6.00 to 7.00 | –
47 | O=C(O)C(Cc1cccc(OCCN2CCOCC2)c1)Nc1cc(-c2ccc(OCc3ccccc3)cc2)ncn1 (stereo not shown) [Example 4-2] | > 7.00 | –
48 | O=C(O)[C@H](Cc1ccccc1)Nc1cc(-c2ccc(Cc3ccccc3)cc2)ncn1 [Example 18-1, N-[6-(4-Benzylphenyl)pyrimidin-4-yl]phenylalanine] | – | 116 to 118 °C
49 | CCCC[C@@H](Nc1cc(-c2ccc(OCc3ccccc3)cc2)ncn1)C(=O)O [Example 1-3, N-{6-[4-(benzyloxy)phenyl]pyrimidin-4-yl}-D-norleucine hydrochloride] | > 7.00 | –
50 | O=C(O)C(Cc1ccccn1)Nc1cc(-c2ccc(-c3ccccc3)cc2)ncn1 (stereo not shown) [Example 1-53] | > 7.00 | –
51 | Cn1nc(-c2ccc(OCc3ccccc3)cc2)cc1NC(Cc1ccccc1)C(=O)O (stereo not shown) [Example 28-3] | < 6.00 | –
